compound: O=C(O)C(Cc1ccccc1[N+](=O)[O-])=NNc1nc(-c2ccc(Cl)c(Cl)c2)cs1 (mixture of isomers) [4EGI-1] + Cc1nc(NC(=O)N2CCC[C@H]2C(N)=O)sc1-c1ccnc(C(C)(C)C(F)(F)F)c1 [Alpelisib] (partner 2 µM); assay: relative viability (nuclei count vs DMSO), 5 days (fraction); higher = more cells survive; conditions: first compound 0.5 µM
Outline: (§1)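 One day after seeding in 1536-well plates, lung cancer cell lines were dosed by pin tool. Dosing was either single-drug or a fixed anchor-drug dose plus five library-drug doses (not always all listed) in √10 steps. After 5 days, nuclei were stained in one fix-and-stain step and counted on 4× images, and relative viability is the nuclei count of treated wells over that of vehicle wells, given as the median of duplicate plates.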

Cell Line | relative viability
201T | 1.03
A-427 | 1.04
ABC-1 | 1.07
BEN | 1.05
CAL-12T | 1.24
EKVX | 1.12
EMC-BAC-2 | 0.733
EPLC-272H | 0.98
H3255 | 0.861
HARA | 0.935
HCC-15 | 0.923
HCC-44 | 0.86
HCC-78 | 0.439
HCC-366 | 0.642
HCC-827 | 1.07
HOP-62 | 1.13

Cell Line | relative viability
LC-2-ad | 0.865
LCLC-97TM1 | 0.213
LCLC-103H | 1.01
LK-2 | 1.22
LOU-NH91 | 0.814
LU99A | 0.613
LXF-289 | 1.17
NCI-H23 | 0.905
NCI-H322M | 0.778
NCI-H358 | 0.966
NCI-H441 | 0.787
NCI-H460 | 0.511
NCI-H596 | 0.576
NCI-H647 | 1.16
NCI-H650 | 1.15
NCI-H1703 | 0.414

same assay, conditions: first compound 1.581 µM

Cell Line | relative viability
201T | 0.997
A-427 | 0.968
ABC-1 | 1.03
BEN | 1.17
EKVX | 0.85
EMC-BAC-2 | 0.628
EPLC-272H | 0.868
H3255 | 0.641
HARA | 0.921
HCC-15 | 0.886
HCC-44 | 0.485
HCC-78 | 0.315
HCC-366 | 0.364
HCC-827 | 0.957
LC-2-ad | 0.758
LCLC-103H | 0.866
LXF-289 | 1.01
NCI-H322M | 0.895
NCI-H358 | 0.817
NCI-H441 | 0.758
NCI-H596 | 0.524
NCI-H647 | 1.17
NCI-H1703 | 0.305

same assay, conditions: first compound 5 µM

Cell Line | relative viability
201T | 1.09
A-427 | 1.07
ABC-1 | 1.02
BEN | 1.11
CAL-12T | 1.28
EKVX | 0.971
EMC-BAC-2 | 0.72
EPLC-272H | 0.905
H3255 | 0.756
HARA | 0.837
HCC-15 | 0.968
HCC-44 | 0.79
HCC-78 | 0.319
HCC-366 | 0.399
HCC-827 | 0.897
HOP-62 | 1.12

Cell Line | relative viability
LC-2-ad | 0.858
LCLC-97TM1 | 0.239
LCLC-103H | 0.866
LK-2 | 1.12
LOU-NH91 | 0.726
LU99A | 0.538
LXF-289 | 1.04
NCI-H23 | 0.915
NCI-H322M | 0.771
NCI-H358 | 0.96
NCI-H441 | 0.656
NCI-H460 | 0.493
NCI-H596 | 0.508
NCI-H647 | 1.41
NCI-H650 | 1.25
NCI-H1703 | 0.387

same assay, conditions: first compound 15.81 µM

Cell Line | relative viability
201T | 1.03
A-427 | 0.991
ABC-1 | 0.74
BEN | 1.07
CAL-12T | 1.25
EKVX | 0.648
EMC-BAC-2 | 0.485
EPLC-272H | 0.911
H3255 | 0.473
HARA | 0.833
HCC-15 | 0.809
HCC-44 | 0.532
HCC-78 | 0.32
HCC-366 | 0.5
HOP-62 | 1.13
LC-2-ad | 0.822

Cell Line | relative viability
LCLC-97TM1 | 0.236
LCLC-103H | 0.879
LK-2 | 1.21
LOU-NH91 | 0.466
LU99A | 0.539
LXF-289 | 0.89
NCI-H23 | 0.794
NCI-H322M | 0.722
NCI-H358 | 0.653
NCI-H441 | 0.743
NCI-H460 | 0.197
NCI-H596 | 0.574
NCI-H647 | 0.647
NCI-H650 | 1.15
NCI-H1703 | 0.338

same assay, conditions: first compound 50 µM

Cell Line | relative viability
201T | 0.97
A-427 | 0.759
ABC-1 | 0.405
BEN | 0.915
CAL-12T | 1.15
EKVX | 0.826
EMC-BAC-2 | 0.656
EPLC-272H | 0.873
H3255 | 0.561
HARA | 0.295
HCC-15 | 0.519
HCC-44 | 0.182
HCC-78 | 0.218
HCC-366 | 0.331
HCC-827 | 0.85
HOP-62 | 0.745

Cell Line | relative viability
LC-2-ad | 0.137
LCLC-97TM1 | 0.211
LCLC-103H | 0.879
LK-2 | 0.897
LOU-NH91 | 0.538
LU99A | 0.171
LXF-289 | 0.516
NCI-H23 | 0.611
NCI-H322M | 0.809
NCI-H358 | 0.175
NCI-H441 | 0.301
NCI-H460 | 0.0546
NCI-H596 | 0.461
NCI-H647 | 0.108
NCI-H650 | 0.92
NCI-H1703 | 0.381

compound: CN1CCN(CC1)C2=CC(=C(C=C2)NC3=NC=C4C(=N3)N(C5=CC=CC=C5C(=O)N4C)C)OC [XMD8-85] + NC(=O)Nc1cc(-c2cccc(F)c2)sc1C(=O)N[C@H]1CCCNC1 [AZD7762] (partner 0.2 µM); assay: as above; conditions: first compound 0.08 µM
Outline: as §1

Cell Line | relative viability
201T | 0.566
ABC-1 | 0.904
BEN | 0.831
CAL-12T | 0.545
EKVX | 0.685
EMC-BAC-2 | 1.16

— the supplement of paper PMC10307832
